Measured values: patent US9624241B2 (Incyte Corporation, priority 2013, dated 2017)
Structures can show the parent of a compound that is named as a salt. Where two headings read alike, the source gives them in different places.

Legend:
BRD4-BD1 = BRD4-BD1 (Homo sapiens (Human), UniProt O60885); test: BRD4 AlphaScreen Assay (Example A2), BRD4-BD1; format: binding
Procedure: (§1) BRD4-BD1 and BRD4-BD2 assays were conducted in white 384-well polystyrene plate in a final volume of 40 μL for BD1 and 60 μL for BD2. Inhibitors were first serially diluted in DMSO and added to the plate wells before the addition of other reaction components. […] The assays were carried out at room temperature in the assay buffer (50 mM Tris-HCl, pH 7.5, 0.01% Tween-20, 0.01% BSA, 5 mM DTT), containing 50 nM Biotin-labeled tetra-acetylated histone H4 peptide (H4Ac4) and BRD4-BD1 or BRD4-BD2 protein at concentration less than 1 nM. […] After plate sealing, the plate was incubated in the dark at room temperature for 75 min. before reading on a PHERAstar FS plate reader (BMG Labtech). IC50 determination was performed by fitting the curve of percent control activity versus the log of the inhibitor concentration using the GraphPad Prism 5.0 software.

BRD4-BD2 = BRD4-BD2 (Homo sapiens (Human), UniProt O60885); test: BRD4 AlphaScreen Assay (Example A2), BRD4-BD2; format: binding
Procedure: as §1

[1] = Assay A2, AlphaScreen, BRD4-BD1, read-out: BRD4 BD-1 enzyme IC50
[2] = Assay A2, AlphaScreen, BRD4-BD2, read-out: BRD4 BD-2 enzyme IC50

Row | IC50 (BRD4-BD1; [1]) | IC50 (BRD4-BD2; [2]) | Structure (SMILES) | IC50 (BRD4-BD1) | IC50 (BRD4-BD2)
1 | – | – | Cc1noc(C)c1-c1ccc2[nH]c(=O)n3c2c1OCC3C1CCCCN1 (single isomer, unassigned) [Example 63A, 7-(3,5-Dimethylisoxazol-4-yl)-4-piperidin-2-yl-4,5-dihydroimidazo[1,5,4-de][1,4]benzoxazin-2(1H)-one 2,2,2-trifluoroacetate] | 100 to 1000 nM | 100 to 1000 nM
2 | 100 to 1000 nM | < 100 nM | Cc1noc(C)c1-c1cc(C(C)O)c2[nH]c(=O)n3c2c1OC[C@@H]3c1ccccn1 (single isomer, unassigned) [Example 144B] | – | –
3 | < 100 nM | < 100 nM | Cc1noc(C)c1-c1ccc2nc(C3CCNC3)n3c2c1OC[C@@H]3c1ccccn1 (single isomer, unassigned; diastereomer 2) [Example 106B] | – | –
4 | 100 to 1000 nM | < 100 nM | Cc1noc(C)c1-c1ccc2[nH]c(=O)n3c2c1OC(C(=O)NCCO)C3c1ccccc1 (single isomer, unassigned) [Example 48B, 7-(3,5-Dimethylisoxazol-4-yl)-N-(2-hydroxyethyl)-2-oxo-4-phenyl-1,2,4,5-tetrahydroimidazo[1,5,4-de][1,4]benzoxazine-5-carboxamide] | – | –
5 | 100 to 1000 nM | 100 to 1000 nM | Cc1noc(C)c1-c1cc(CNC(C)C)c2[nH]c(=O)n3c2c1OCC3c1ccccn1 (stereo not drawn) [Example 253, 7-(3,5-Dimethylisoxazol-4-yl)-9-[(isopropylamino)methyl]-4-pyridin-2-yl-4,5-dihydroimidazo[1,5,4-de][1,4]benzoxazin-2(1H)-one] | – | –
6 | < 100 nM | < 100 nM | Cc1noc(C)c1-c1cc(Br)c2[nH]c(=O)n3c2c1OCC3c1ccccc1 (stereo not drawn) [Example 45, 9-Bromo-7-(3,5-Dimethylisoxazol-4-yl)-4-phenyl-4,5-dihydroimidazo[1,5,4-de][1,4]benzoxazin-2(1H)-one] | – | –
7 | < 100 nM | < 100 nM | CCS(=O)(=O)NC1CN(c2nc3ccc(-c4c(C)noc4C)c4c3n2[C@@H](c2ccccn2)CO4)C1 [Example 238, N-{1-[(4S)-7-(3,5-dimethylisoxazol-4-yl)-4-pyridin-2-yl-4,5-dihydroimidazo[1,5,4-de][1,4]benzoxazin-2-yl]azetidin-3-yl}ethanesulfonamide] | – | –
8 | < 100 nM | < 100 nM | Cc1noc(C)c1-c1ccc2[nH]c(=O)n3c2c1OCC3c1cncc(F)c1 (stereo not drawn) [Example 78, 7-(3,5-dimethylisoxazol-4-yl)-4-(5-fluoropyridin-3-yl)-4,5-dihydroimidazo[1,5,4-de][1,4]benzoxazin-2(1H)-one] | – | –
9 | < 100 nM | < 100 nM | CNC(=O)c1nc2ccc(-c3c(C)noc3C)c3c2n1[C@@H](c1ccccn1)CO3 [Example 95, (4S)-7-(3,5-Dimethylisoxazol-4-yl)-N-methyl-4-pyridin-2-yl-4,5-dihydroimidazo[1,5,4-de][1,4]benzoxazine-2-carboxamide] | – | –
10 | < 100 nM | < 100 nM | Cc1noc(C)c1-c1ccc2nc(N3CC[C@@H](N(C)C(=O)CC#N)C3)n3c2c1OC[C@@H]3c1ccccn1 [Example 152, 2-Cyano-N-{(3R)-1-[(4S)-7-(3,5-dimethylisoxazol-4-yl)-4-pyridin-2-yl-4,5-dihydroimidazo[1,5,4-de][1,4]benzoxazin-2-yl]pyrrolidin-3-yl}-N-methylacetamide] | – | –
11 | < 100 nM | < 100 nM | Cc1noc(C)c1-c1ccc2nc(C3CCN(S(C)(=O)=O)C3)n3c2c1OC[C@@H]3c1ccccn1 (mixture of isomers) [Example 115, (4S)-7-(3,5-dimethylisoxazol-4-yl)-2-[1-(methylsulfonyl)pyrrolidin-3-yl]-4-pyridin-2-yl-4,5-dihydroimidazo[1,5,4-de][1,4]benzoxazine (mixture of diastereomers)] | – | –
12 | 100 to 1000 nM | < 100 nM | Cc1noc(C)c1-c1cc(CNC(=O)CN(C)C)c2[nH]c(=O)n3c2c1OC[C@@H]3c1ccccn1 [Example 143, 2-(Dimethylamino)-N-{[(4S)-7-(3,5-dimethylisoxazol-4-yl)-2-oxo-4-pyridin-2-yl-1,2,4,5-tetrahydroimidazo[1,5,4-de][1,4]benzoxazin-9-yl]methyl}acetamide] | – | –
13 | 1000 to 10000 nM | < 100 nM | Cc1noc(CF)c1-c1ccc2[nH]c(=O)n3c2c1OCC3c1ccccn1 (stereo not drawn) [Example 125, 7-[5-(Fluoromethyl)-3-methylisoxazol-4-yl]-4-pyridin-2-yl-4,5-dihydroimidazo[1,5,4-de][1,4]benzoxazin-2(1H)-one trifluoroacetate] | – | –
14 | < 100 nM | < 100 nM | Cc1noc(C)c1-c1ccc2nc(C3=CCCN(C(=O)OC(C)(C)C)C3)n3c2c1OC[C@@H]3c1ccccn1 [Example 99, tert-Butyl 5-[(4S)-7-(3,5-dimethylisoxazol-4-yl)-4-pyridin-2-yl-4,5-dihydroimidazo[1,5,4-de][1,4]benzoxazin-2-yl]-3,6-dihydropyridine-1(2H)-carboxylate] | – | –
15 | 100 to 1000 nM | < 100 nM | Cc1noc(C)c1-c1cc(-c2cccnc2O)c2[nH]c(=O)n3c2c1OC[C@@H]3c1ccccn1 [Example 261, (4S)-7-(3,5-dimethylisoxazol-4-yl)-9-(2-hydroxypyridin-3-yl)-4-pyridin-2-yl-4,5-dihydroimidazo[1,5,4-de][1,4]benzoxazin-2(1H)-one] | – | –
16 | < 100 nM | < 100 nM | Cc1noc(C)c1-c1ccc2nc([C@@H](O)CO)n3c2c1OC[C@@H]3c1ccccn1 [Example 89, (1R)-1-[(4S)-7-(3,5-Dimethylisoxazol-4-yl)-4-pyridin-2-yl-4,5-dihydroimidazo[1,5,4-de][1,4]benzoxazin-2-yl]ethane-1,2-diol] | – | –
17 | < 100 nM | < 100 nM | Cc1noc(C)c1-c1ccc2nc(C3CCN(C(=O)C4CC4)CC3)n3c2c1OC[C@@H]3c1ccccn1 [Example 111, (4S)-2-[1-(cyclopropylcarbonyl)piperidin-4-yl]-7-(3,5-dimethylisoxazol-4-yl)-4-pyridin-2-yl-4,5-dihydroimidazo[1,5,4-de][1,4]benzoxazine] | – | –
18 | < 100 nM | < 100 nM | Cc1noc(C)c1-c1cc(F)c2nc(N3CCC(O)C3)n3c2c1OCC3c1cccnc1 (stereo not drawn) [Example 157, 1-[7-(3,5-Dimethylisoxazol-4-yl)-9-fluoro-4-pyridin-3-yl-4,5-dihydroimidazo[1,5,4-de][1,4]benzoxazin-2-yl]pyrrolidin-3-ol] | – | –
19 | < 100 nM | < 100 nM | Cc1noc(C)c1-c1cc(CNC(=O)Cc2ccccc2)c2[nH]c(=O)n3c2c1OC[C@@H]3c1ccccn1 [Example 139, N-{[(4S)-7-(3,5-Dimethylisoxazol-4-yl)-2-oxo-4-pyridin-2-yl-1,2,4,5-tetrahydroimidazo[1,5,4-de][1,4]benzoxazin-9-yl]methyl}-2-phenylacetamide] | – | –
20 | < 100 nM | < 100 nM | Cc1noc(C)c1-c1ccc2nc(C3CCN(C(=O)OC(C)(C)C)C3)n3c2c1OC[C@@H]3c1ccccn1 (single isomer, unassigned; diastereoisomer 2) [Example 101B] | – | –
21 | < 100 nM | < 100 nM | COCC(=O)NCc1cc(-c2c(C)noc2C)c2c3c1[nH]c(=O)n3[C@@H](c1ccccn1)CO2 [Example 140, N-{[(4S)-7-(3,5-Dimethylisoxazol-4-yl)-2-oxo-4-pyridin-2-yl-1,2,4,5-tetrahydroimidazo[1,5,4-de][1,4]benzoxazin-9-yl]methyl}-2-methoxyacetamide] | – | –
22 | 100 to 1000 nM | < 100 nM | Cc1noc(C)c1-c1ccc2[nH]c(=O)n3c2c1OCC3c1cccnc1C#N (racemic) [Example 126, 3-[7-(3,5-Dimethylisoxazol-4-yl)-2-oxo-1,2,4,5-tetrahydroimidazo[1,5,4-de][1,4]benzoxazin-4-yl]pyridine-2-carbonitrile] | – | –
23 | 100 to 1000 nM | < 100 nM | CCOC(=O)/C=C/c1cc(-c2c(C)noc2C)c2c3c1[nH]c(=O)n3[C@@H](c1ccccn1)CO2 [Example 86, ethyl (2E)-3-[(4S)-7-(3,5-dimethylisoxazol-4-yl)-2-oxo-4-pyridin-2-yl-1,2,4,5-tetrahydroimidazo[1,5,4-de][1,4]benzoxazin-9-yl]acrylate 2,2,2-trifluoroacetate] | – | –
24 | < 100 nM | < 100 nM | CC(=O)N1CCC=C(c2nc3ccc(-c4c(C)noc4C)c4c3n2[C@@H](c2ccccn2)CO4)C1 [Example 116, (4S)-2-(1-acetyl-1,2,5,6-tetrahydropyridin-3-yl)-7-(3,5-dimethylisoxazol-4-yl)-4-pyridin-2-yl-4,5-dihydroimidazo[1,5,4-de][1,4]benzoxazine] | – | –
25 | – | < 100 nM | Cc1noc(C)c1-c1ccc2nc(N3CCC(NC(=O)C(C)C)CC3)n3c2c1OCC3c1ccccn1 (stereo not drawn) [Example 244] | – | –
26 | < 100 nM | – | Cc1noc(C)c1-c1ccc2nc(C3CCN(C(=O)C4CC4)C3)n3c2c1OC[C@@H]3c1ccccn1 (single isomer, unassigned; diastereomer 2) [Example 114B] | – | –

Row | Structure (SMILES) | IC50 (BRD4-BD1; [1]) | IC50 (BRD4-BD2; [2]) | IC50 (BRD4-BD1) | IC50 (BRD4-BD2)
27 | Cc1noc(C)c1-c1c(Cl)c(Cl)c2[nH]c(=O)n3c2c1OC[C@@H]3c1ccccn1 [Example 252, (4S)-8,9-dichloro-7-(3,5-dimethylisoxazol-4-yl)-4-pyridin-2-yl-4,5-dihydroimidazo[1,5,4-de][1,4]benzoxazin-2(1H)-one bistrifluoroacetate] | 100 to 1000 nM | 100 to 1000 nM | – | –
28 | Cc1noc(C)c1-c1ccc2[nH]c(=O)n3c2c1OC(C)(C)C3c1ccccn1 (single isomer, unassigned) [Example 61A, 7-(3,5-Dimethylisoxazol-4-yl)-5,5-dimethyl-4-pyridin-2-yl-4,5-dihydroimidazo[1,5,4-de][1,4]benzoxazin-2(1H)-one] | < 100 nM | < 100 nM | – | –
